Measured values as given in ChEMBL document CHEMBL3886529, “PDE10a inhibitors for the treatment of type II diabetes” (2016).

These compounds were tested against T1, cAMP and cAMP-inhibited cGMP 3',5'-cyclic phosphodiesterase 10A (Rattus norvegicus, UniProt Q9QYJ6) (assay: In Vitro Assay rPDE10: Rat recombinant PDE10a (rPDE10a) was expressed in Sf9 cells using a recombinant rPDE10a baculovirus construct. Cells were harvested after 48 h of infection and the rPDE10a protein was purified by metal chelate chromatography on Ni-sepharose 6FF. Tested compounds were dissolved and diluted in 100% DMSO to a concentration 100 fold of the final concentration in the assay. Compound dilutions (0.4 uL) were added in 384 well plates to 20 uL of incubation buffer (50 mM Tris pH 7.8, 8.3 mM MgCl2, 1.7 mM EGTA). 10 uL of rPDE10a enzyme in incubation buffer was added and the reaction was started by addition of 10 uL substrate to a final concentration of 60 nM cAMP and 0.008 uCi 3H-cAMP. The reaction was incubated for 60 min at rt. After incubation, the reaction was stopped with 20 uL of 17.8 mg/mL PDE SPA beads. After sedimentation of the beads during 30 min the radioactivity was measured in a Perkin Elmer Topcount scintillation counter and results were expressed as cpm. For blank values the enz).
T1 sequence (Q9QYJ6 whole entry): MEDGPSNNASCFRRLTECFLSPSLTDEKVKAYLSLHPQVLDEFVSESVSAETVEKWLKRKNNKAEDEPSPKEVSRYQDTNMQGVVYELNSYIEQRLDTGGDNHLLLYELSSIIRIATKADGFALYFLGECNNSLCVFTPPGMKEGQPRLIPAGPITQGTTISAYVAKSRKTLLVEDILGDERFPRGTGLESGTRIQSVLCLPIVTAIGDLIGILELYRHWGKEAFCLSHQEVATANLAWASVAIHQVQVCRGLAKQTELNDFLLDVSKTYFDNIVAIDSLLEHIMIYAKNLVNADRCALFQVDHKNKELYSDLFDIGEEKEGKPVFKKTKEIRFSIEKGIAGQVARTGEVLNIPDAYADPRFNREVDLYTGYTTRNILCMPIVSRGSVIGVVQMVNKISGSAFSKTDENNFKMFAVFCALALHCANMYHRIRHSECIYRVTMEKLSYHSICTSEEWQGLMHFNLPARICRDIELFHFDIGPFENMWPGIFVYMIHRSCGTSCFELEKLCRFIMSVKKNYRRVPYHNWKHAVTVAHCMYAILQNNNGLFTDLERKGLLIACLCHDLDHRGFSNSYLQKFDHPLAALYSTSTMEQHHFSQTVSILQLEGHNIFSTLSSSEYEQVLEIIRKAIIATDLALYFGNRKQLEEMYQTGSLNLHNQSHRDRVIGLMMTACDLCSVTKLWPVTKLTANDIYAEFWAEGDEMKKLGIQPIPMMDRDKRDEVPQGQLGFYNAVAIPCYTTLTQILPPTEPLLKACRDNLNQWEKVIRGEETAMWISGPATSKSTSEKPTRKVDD

Compared with `c1ccc2nc(OCc3cn4c(C5CCNCC5)cnc(N5CCOCC5)c4n3)ccc2c1`, `O=C1Nc2ccc(-c3cnc(N4CCOCC4)c4nc(CCc5ccc6ccccc6n5)cn34)cc2C1(F)F` is 30-fold lower in IC50: 0.562 µM for the first, 0.019 µM for the second. The second is the more potent here.

For `O=C(O)c1cc(/C=C/c2cn3ccnc(N4CCOCC4)c3n2)nc2ccccc12`, the IC50 was 0.009 µM.
